Results on 28 compounds are retold here after patent US20240043427A1 (Gilead Sciences, Inc., priority 2020, published 2024).

Assay [1] addresses T1, CD73 (Homo sapiens (Human), UniProt P21589). The class given is biochemical. The following applies: 1 mM NaH2PO4 in enzyme buffer, CD73 0.3 nM, AMP 15 uM.
Assay [2] addresses T1, CD73. Nature of the assay: MDA-MB-231 Cell Based CD73 Activity Assay (DMEM). The note with it: MDA-MB-231-GFP cells, DMEM medium with 10% human plasma, 200 uM AMP.

A value given as a limit tells only on which side of the number the result lay.

T1 sequence (P21589 27-574): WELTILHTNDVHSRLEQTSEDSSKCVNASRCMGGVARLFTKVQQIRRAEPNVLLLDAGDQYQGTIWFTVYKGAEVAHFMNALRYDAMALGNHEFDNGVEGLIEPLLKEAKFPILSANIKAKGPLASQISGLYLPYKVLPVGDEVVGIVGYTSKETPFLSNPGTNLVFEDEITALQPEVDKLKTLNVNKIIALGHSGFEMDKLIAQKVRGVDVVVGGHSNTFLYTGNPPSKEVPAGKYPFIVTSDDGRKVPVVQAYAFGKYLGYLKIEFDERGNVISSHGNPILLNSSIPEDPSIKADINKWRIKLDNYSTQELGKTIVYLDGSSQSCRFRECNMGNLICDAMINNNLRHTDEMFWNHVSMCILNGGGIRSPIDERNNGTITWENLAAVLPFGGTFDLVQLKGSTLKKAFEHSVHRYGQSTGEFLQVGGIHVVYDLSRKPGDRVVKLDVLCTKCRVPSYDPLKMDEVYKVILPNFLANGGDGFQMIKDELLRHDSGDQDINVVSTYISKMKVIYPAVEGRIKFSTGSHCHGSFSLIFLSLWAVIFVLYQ

For orientation: IC50 means the concentration that gives 50% inhibition. A lower IC50 goes with greater potency. In general, EC50 refers to the concentration that produces a half-maximal response. Read a high EC50 as lower potency in that assay. Turning to `O=c1[nH]cc(-c2cc([C@H]3C[C@@H]3c3ccc4c(F)nn(CC(F)(F)F)c4c3)c3nccn3n2)c(=O)[nH]1` [Example 393, 5-(8-((1S,2S)-2-(3-fluoro-1-(2,2,2-trifluoroethyl)-1H-indazol-6-yl)cyclopropyl)imidazo[1,2-b]pyridazin-6-yl)pyrimidine-2,4(1H,3H)-dione], at CD73 [1], 0.74 nM corresponded to half-maximal inhibition (IC50). Moreover, the EC50 on CD73 [2] was determined as 0.16 nM.

Take `O=c1[nH]cc(-c2cc([C@H]3C[C@@H]3c3cc(C(F)(F)F)c4cccnc4c3)c3nccn3n2)c(=O)[nH]1` [Example 394, 5-(8-((1S,2S)-2-(5-(trifluoromethyl)quinolin-7-yl)cyclopropyl)imidazo[1,2-b]pyridazin-6-yl)pyrimidine-2,4(1H,3H)-dione]: on CD73 [1], the IC50 worked out at 5.94 nM. The compound further had an EC50 at CD73 [2] above 250 nM.

For `O=c1[nH]cc(-c2cc([C@H]3C[C@@H]3c3cnc4c(C(F)(F)F)cccc4c3)c3nccn3n2)c(=O)[nH]1` [Example 395, 5-(8-((1S,2S)-2-(8-(trifluoromethyl)quinolin-3-yl)cyclopropyl)imidazo[1,2-b]pyridazin-6-yl)pyrimidine-2,4(1H,3H)-dione], half-maximal inhibition against CD73 [1] (IC50) was put at 2.1 nM. On CD73 [2], this compound showed an EC50 of 29.9 nM.

The compound `O=c1[nH]cc(-c2cc(N3CC(F)(C(F)(F)F)C3)c3nccn3n2)c(=O)[nH]1` [Example 397, 5-(8-(3-fluoro-3-(trifluoromethyl)azetidin-1-yl)imidazo[1,2-b]pyridazin-6-yl)pyrimidine-2,4(1H,3H)-dione] came in with an IC50 against CD73 [1] of 15.3 nM. On CD73 [2], this compound yielded an EC50 of 22.5 nM.

On CD73 [1], `O=c1[nH]cc(-c2cc(N3CC4(CCC4)C3)c3nccn3n2)c(=O)[nH]1` [Example 398, 5-(8-(2-azaspiro[3.3]heptan-2-yl)imidazo[1,2-b]pyridazin-6-yl)pyrimidine-2,4(1H,3H)-dione] registered an IC50 of 17.1 nM. In addition, at CD73 [2], the EC50 stood at 29.5 nM.

Turning to `CC1(C(F)F)CN(c2cc(-c3c[nH]c(=O)[nH]c3=O)nn3ccnc23)C1` [Example 399, 5-(8-(3-(difluoromethyl)-3-methylazetidin-1-yl)imidazo[1,2-b]pyridazin-6-yl)pyrimidine-2,4(1H,3H)-dione], inhibition at CD73 [1] was half-maximal at 12.2 nM (IC50). In addition, the half-maximal effective concentration (EC50) on CD73 [2] was found to be 27 nM.

Consider `O=c1[nH]cc(-c2cc(N3CC(C4CC4(F)F)C3)c3nccn3n2)c(=O)[nH]1` (centres unmarked) [Example 400, 5-(8-(3-(2,2-difluorocyclopropyl)azetidin-1-yl)imidazo[1,2-b]pyridazin-6-yl)pyrimidine-2,4(1H,3H)-dione], for which it took 207 nM to reach half-maximal inhibition against CD73 [1] (IC50). Further, the EC50 at CD73 [2] is 547 nM.

Take `O=c1[nH]cc(-c2cc(N3CC(C4CCC4)C3)c3nccn3n2)c(=O)[nH]1` [Example 401, 5-(8-(3-cyclobutylazetidin-1-yl)imidazo[1,2-b]pyridazin-6-yl)pyrimidine-2,4(1H,3H)-dione]: the IC50 against CD73 [1] amounted to 12.6 nM. On CD73 [2], this compound had an EC50 of 53 nM.

At CD73 [1], `O=c1[nH]cc(-c2cc(N3CC(F)(C(F)(F)F)C3)n3ncnc3n2)c(=O)[nH]1` [Example 402, 5-(7-(3-fluoro-3-(trifluoromethyl)azetidin-1-yl)-[1,2,4]triazolo[1,5-a]pyrimidin-5-yl)pyrimidine-2,4(1H,3H)-dione] came in with an IC50 of 53.2 nM. The same compound had an EC50 on CD73 [2] of 136 nM.

Take `O=c1[nH]cc(-c2cc(N3CC(C(F)F)C3)c3nccn3n2)c(=O)[nH]1` [Example 403, 5-(8-(3-(difluoromethyl)azetidin-1-yl)imidazo[1,2-b]pyridazin-6-yl)pyrimidine-2,4(1H,3H)-dione]: on CD73 [1], the IC50 is 8.94 nM. Further, it took 28.5 nM to reach a half-maximal effect on CD73 [2] (EC50).

On to `O=c1[nH]cc(-c2cc(N3CC(C4CC4)C3)c3nccn3n2)c(=O)[nH]1` [Example 404, 5-(8-(3-cyclopropylazetidin-1-yl)imidazo[1,2-b]pyridazin-6-yl)pyrimidine-2,4(1H,3H)-dione], for which half-maximal inhibition against CD73 [1] (IC50) required 22.9 nM. For the same compound, the midpoint of the response on CD73 [2], the EC50, lay at 77.6 nM.

`O=c1[nH]cc(-c2cc(N3CC4(CCC4(F)F)C3)c3nccn3n2)c(=O)[nH]1` [Example 405, 5-(8-(5,5-difluoro-2-azaspiro[3.3]heptan-2-yl)imidazo[1,2-b]pyridazin-6-yl)pyrimidine-2,4(1H,3H)-dione]: at CD73 [1], inhibition was half-maximal at 8.3 nM (IC50). Besides, a half-maximal effect at CD73 [2] (EC50) was put at 21.6 nM.

In turn, `O=c1[nH]cc(-c2cc(N3CC4(C3)CC4(F)F)c3nccn3n2)c(=O)[nH]1` [Example 406, 5-(8-(1,1-difluoro-5-azaspiro[2.3]hexan-5-yl)imidazo[1,2-b]pyridazin-6-yl)pyrimidine-2,4(1H,3H)-dione] yielded an IC50 against CD73 [1] of 25.6 nM. Moreover, the EC50 at CD73 [2] worked out at 98.2 nM.

The compound `CC(C)(F)C1CN(c2cc(-c3c[nH]c(=O)[nH]c3=O)nn3ccnc23)C1` [Example 409, 5-(8-(3-(2-fluoropropan-2-yl)azetidin-1-yl)imidazo[1,2-b]pyridazin-6-yl)pyrimidine-2,4(1H,3H)-dione] gave an IC50 on CD73 [1] of 10.7 nM. On CD73 [2], this compound showed an EC50 of 37.8 nM.

In the case of `O=c1[nH]cc(-c2cc(C3CCOCC3)c3nccn3n2)c(=O)[nH]1` [Example 410, 5-(8-(tetrahydro-2H-pyran-4-yl)imidazo[1,2-b]pyridazin-6-yl)pyrimidine-2,4(1H,3H)-dione], half-maximal inhibition against CD73 [1] (IC50) was put at 817 nM. Also, the EC50 at CD73 [2] turned out to be 928 nM.

Regarding `N#Cc1ccc([C@H]2C[C@@H]2c2cc(-c3c[nH]c(=O)[nH]c3=O)nn3c(F)cnc23)cc1F` [Example 415, 4-((1S,2S)-2-(6-(2,4-dioxo-1,2,3,4-tetrahydropyrimidin-5-yl)-3-fluoroimidazo[1,2-b]pyridazin-8-yl)cyclopropyl)-2-fluorobenzonitrile], the IC50 on CD73 [1] was found to be 0.79 nM. The EC50 on CD73 [2] came to 3.93 nM.

Regarding `O=c1[nH]cc(-c2cc([C@H]3C[C@@H]3c3ccc(C(F)F)cc3)c3nccn3n2)c(=O)[nH]1` [Example 418, 5-(8-((1S,2S)-2-(4-(difluoromethyl)phenyl)cyclopropyl)imidazo[1,2-b]pyridazin-6-yl)pyrimidine-2,4(1H,3H)-dione], half-maximal inhibition against CD73 [1] (IC50) was put at 0.96 nM. Moreover, at CD73 [2], the EC50 is 4.71 nM.

Consider `O=c1[nH]cc(-c2cc([C@H]3C[C@@H]3c3ccc(C(F)F)cc3)c3ncc(F)n3n2)c(=O)[nH]1` [Example 419, 5-(8-((1S,2S)-2-(4-(difluoromethyl)phenyl)cyclopropyl)-3-fluoroimidazo[1,2-b]pyridazin-6-yl)pyrimidine-2,4(1H,3H)-dione], for which, at CD73 [1], half-maximal inhibition (IC50) required 1.23 nM. At CD73 [2], this compound registered an EC50 of 8.9 nM.

Turning to `CC1(C)CN(c2cc(-c3c[nH]c(=O)[nH]c3=O)nc3ncnn23)CC1(F)F` [Example 420, 5-(7-(3,3-difluoro-4,4-dimethylpyrrolidin-1-yl)-[1,2,4]triazolo[1,5-a]pyrimidin-5-yl)pyrimidine-2,4(1H,3H)-dione], half-maximal inhibition on CD73 [1] (IC50) was put at 4.87 nM. The EC50 at CD73 [2] came to 13.7 nM.

In turn, `CC1(C)CN(c2cc(-c3c[nH]c(=O)[nH]c3=O)nc3nccn23)CC1(F)F` [Example 421, 5-(5-(3,3-difluoro-4,4-dimethylpyrrolidin-1-yl)imidazo[1,2-a]pyrimidin-7-yl)pyrimidine-2,4(1H,3H)-dione] came in with an IC50 against CD73 [1] of 31 nM. Besides, the EC50 at CD73 [2] amounted to 65.1 nM.

Turning to `Cc1nc2c(N3CC(C)(C)C(F)(F)C3)cc(-c3c[nH]c(=O)[nH]c3=O)nn2c1F` [Example 422, 5-(8-(3,3-difluoro-4,4-dimethylpyrrolidin-1-yl)-3-fluoro-2-methylimidazo[1,2-b]pyridazin-6-yl)pyrimidine-2,4(1H,3H)-dione], the midpoint of inhibition against CD73 [1], the IC50, lay at 72.7 nM. This compound also had an EC50 on CD73 [2] of 155 nM.

As to `O=c1[nH]cc(-c2cc(N3CC(F)(CO)C3)c3nccn3n2)c(=O)[nH]1` [Example 423, 5-(8-(3-fluoro-3-(hydroxymethyl)azetidin-1-yl)imidazo[1,2-b]pyridazin-6-yl)pyrimidine-2,4(1H,3H)-dione], the IC50 at CD73 [1] turned out to be 39.2 nM. This compound also came in with an EC50 at CD73 [2] of 76.4 nM.

`N#Cc1cc(F)c([C@H]2C[C@@H]2c2cc(-c3c[nH]c(=O)[nH]c3=O)nn3ccnc23)c(F)c1` [Example 424, 4-((1S,2S)-2-(6-(2,4-dioxo-1,2,3,4-tetrahydropyrimidin-5-yl)imidazo[1,2-b]pyridazin-8-yl)cyclopropyl)-3,5-difluorobenzonitrile]: the IC50 against CD73 [1] was 1.64 nM. In addition, at CD73 [2], the EC50 worked out at 4.1 nM.

Consider `N#Cc1cc(F)c([C@H]2C[C@@H]2c2cc(-c3c[nH]c(=O)[nH]c3=O)nn3c(F)cnc23)c(F)c1` [Example 425, 4-((1S,2S)-2-(6-(2,4-dioxo-1,2,3,4-tetrahydropyrimidin-5-yl)-3-fluoroimidazo[1,2-b]pyridazin-8-yl)cyclopropyl)-3,5-difluorobenzonitrile], for which the half-inhibitory concentration (IC50) against CD73 [1] was determined as 1.63 nM. The compound further yielded an EC50 at CD73 [2] of 5.63 nM.

On to `CC1(C)CN(c2cc(-c3c[nH]c(=O)[nH]c3=O)nn3ncnc23)CC1(F)F` [Example 426, 5-(8-(3,3-difluoro-4,4-dimethylpyrrolidin-1-yl)-[1,2,4]triazolo[1,5-b]pyridazin-6-yl)pyrimidine-2,4(1H,3H)-dione], for which the IC50 against CD73 [1] was found to be 0.23 nM. Besides, the EC50 on CD73 [2] is 4.5 nM.

As for `O=c1[nH]cc(-c2cc([C@H]3C[C@@H]3c3ccc(C(F)(F)F)cc3)c3ncnn3n2)c(=O)[nH]1` [Example 427, 5-(8-((1S,2S)-2-(4-(trifluoromethyl)phenyl)cyclopropyl)-[1,2,4]triazolo[1,5-b]pyridazin-6-yl)pyrimidine-2,4(1H,3H)-dione], the IC50 against CD73 [1] worked out at 0.48 nM. Further, the EC50 at CD73 [2] was found to be 7.4 nM.

On to `N#Cc1cc(F)c([C@H]2C[C@@H]2c2cc(-c3c[nH]c(=O)[nH]c3=O)nn3ncnc23)c(F)c1` [Example 428, 4-((1S,2S)-2-(6-(2,4-dioxo-1,2,3,4-tetrahydropyrimidin-5-yl)-[1,2,4]triazolo[1,5-b]pyridazin-8-yl)cyclopropyl)-3,5-difluorobenzonitrile], for which, on CD73 [1], half-maximal inhibition (IC50) was put at 1.38 nM. The EC50 at CD73 [2] stood at 14.7 nM.

On CD73 [1], `O=c1[nH]cc(-c2cc(N3CC[C@@H](OC(F)(F)F)C3)c3ncnn3n2)c(=O)[nH]1` [Example 429, (R)-5-(8-(3-(trifluoromethoxy)pyrrolidin-1-yl)-[1,2,4]triazolo[1,5-b]pyridazin-6-yl)pyrimidine-2,4(1H,3H)-dione] returned an IC50 of 2.22 nM. At CD73 [2], this compound showed an EC50 of 8.89 nM.
